Measurements from patent US11498930B2 (BLUERAY THERAPEUTICS (SHANGHAI) CO., LTD., priority 2018, dated 2022).
Read-outs that look alike come from different tables or passages of the source.

Tests used:
SHP2^E76A protein = SHP2^E76A protein (Homo sapiens (Human), UniProt Q06124, E76A); experiment: SHP2 enzyme activity inhibition experiment; assay type: biochemical
Outline: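 Compounds tested at 10 concentrations in 3-fold serial dilution. IC50 from a four-parameter Hill-slope nonlinear fit of enzyme activity versus concentration.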

[1] = test system: phosphorylation level of intracellular protein kinase (ERK) in MOLM13 cells; experiment: Phosphorylated protein kinase (p-ERK) cell experiment (AlphaLISA); assay type: cell-based; settings: Homo sapiens, MOLM-13, MOLM13 cells
Method: The inhibitory activities of the compounds on the phosphorylation level of intracellular protein kinase (ERK) were determined by AlphaLISA method.
Firstly, the cells were treated with the compounds. The compounds to be tested were subjected to 3-fold dilution with 100% DMSO, and a total of 9 different concentration gradients were set. MOLM13 cells were then seeded into 96-well plates at a density of 30,000 cells per well in a volume of 100 µL per well. […] of DMSO or the test compounds with different concentrations was then transferred into each well, setting two duplicates for each concentration, and the final concentration of DMSO was controlled at 0.5%.
Secondly, the cells were lysed. After 2 hours of cell treatment, the medium was removed, and the cells were washed 3 times with phosphate buffered saline. 50 µL of freshly prepared lysis buffer was added to each well, and the plates were shaken and kept at room temperature for 10 minutes.
Thirdly, the phosphorylated extracellular signal-regulated kinase (p-ERK) was detected by AlphaLISA@ SureFire® Ultra™ p-ERK 1/2 (Thr202/Tyr204) kit (Perkin Elmer, ALSU-PERK-A10K). 10 µL of the above lysate was transferred to a 384-well plate (Perkin Elmer, 6005350), and the phosphorylation level of the extracellular signal-regulated kinase of the sample was detected according to the product instructions. The signal was read using AlphaScreen detector on Spectra max i3 (Molecular Devices). The percentage of inhibition (%) was calculated by the following formula: Inhibition percentage(%)=(1−p-ERK signal of compound-treated cells/p-ERK signal of DMSO-treated cells)*100

MOLM-13 cells = experiment: MOLM-13 cell proliferation experiment; assay type: cell-based; settings: Homo sapiens
Method: After 3 days, 5 µL of CellTiter-Glo reagent (Promega, ZG7572) was added to each well, and the plates were kept at room temperature in the dark for 10 minutes. The […] was detected by Spectra max i3 (Molecular Devices). The relative growth rate of the treated cells was compared with that of DMSO control.

[2] = SHP2 enzyme activity, Tables 1.1 and 1.2, read-out: IC50
[3] = p-ERK, 2 hours of cell treatment, Tables 2.1 and 2.2, read-out: IC50
[4] = MOLM-13, 72 h, MOLM-13 cell proliferation, 3 days, Tables 3.1 and 3.2, read-out: IC50
[5] = Table 4, read-out: SHP2 enzyme activity IC50
[6] = MOLM-13, read-out: MOLM-13 cell proliferation IC50

Chain of SHP2^E76A protein (Q06124 whole entry E76A): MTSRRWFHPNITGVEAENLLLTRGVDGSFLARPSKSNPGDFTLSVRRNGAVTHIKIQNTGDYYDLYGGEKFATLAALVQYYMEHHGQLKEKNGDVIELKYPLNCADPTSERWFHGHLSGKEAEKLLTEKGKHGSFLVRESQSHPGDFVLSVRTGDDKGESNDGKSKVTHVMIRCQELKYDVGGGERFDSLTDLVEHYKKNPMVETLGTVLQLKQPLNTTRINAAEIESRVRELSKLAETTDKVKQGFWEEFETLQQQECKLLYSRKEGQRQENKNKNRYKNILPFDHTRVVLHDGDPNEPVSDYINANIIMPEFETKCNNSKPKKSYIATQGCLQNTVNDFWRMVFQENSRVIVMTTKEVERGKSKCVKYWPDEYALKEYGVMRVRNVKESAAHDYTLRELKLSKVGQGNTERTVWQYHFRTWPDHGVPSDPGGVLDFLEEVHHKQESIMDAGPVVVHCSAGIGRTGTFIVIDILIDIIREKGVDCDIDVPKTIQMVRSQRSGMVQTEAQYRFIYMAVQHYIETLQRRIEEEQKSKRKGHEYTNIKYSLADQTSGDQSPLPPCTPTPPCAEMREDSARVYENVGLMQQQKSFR

Row | Compound | IC50 (SHP2^E76A protein; [2]) | IC50 [1, 3] | IC50 (MOLM-13 cells; [4]) | IC50 (SHP2^E76A protein; [5]) | IC50 ([1]; Table 4, read-out: p-ERK IC50) | IC50 (MOLM-13 cells; [6])
1 | CC1(N)CCN(c2ncc(Sc3cccc(Cl)c3Cl)c3nncn23)CC1 [1-(8-((2,3-dichlorophenyl)thio)-[1,2,4]triazolo[4,3-c]pyrimidin-5-yl)-4-methylpiperidin-4-amine] | 100 to 1000 nM | 1000 to 10000 nM | 1000 to 10000 nM |  |  | 
2 | CC1(N)CCN(c2ncc(Sc3ccnc(N)c3Cl)c3nncn23)CC1 [4-((5-(4-amino-4-methylpiperidin-1-yl)-[1,2,4]triazolo[4,3-c]pyrimidin-8-yl)thio)-3-chloropyridin-2-amine] | 100 to 1000 nM | 1000 to 10000 nM | 1000 to 10000 nM |  |  | 
3 | CC1(CN)CCN(c2ncc(Sc3cccc(Cl)c3Cl)c3nncn23)CC1 [(1-(8-((2,3-dichlorophenyl)thio)-[1,2,4]triazolo[4,3-c]pyrimidin-5-yl)-4-methylpiperidin-4-yl)methanamine] | < 100 nM | 100 to 1000 nM | 1000 to 10000 nM | 40 nM | 170 nM | 1360 nM
4 | NCC1CCN(c2ncc(Sc3cccc(Cl)c3Cl)c3nncn23)C1 (stereo not drawn) [(1-(8-((2,3-dichlorophenyl)thio)-[1,2,4]triazolo[4,3-c]pyrimidin-5-yl)pyrrolidin-3-yl)methanamine] | 100 to 1000 nM | 1000 to 10000 nM | 1000 to 10000 nM |  |  | 
5 | CC1C[C@@H](N)C2(CCN(c3ncc(Sc4cccc(Cl)c4Cl)c4nncn34)CC2)C1 (stereo partly drawn) [(1R)-8-(8-((2,3-dichlorophenyl)thio)-[1,2,4]triazolo[4,3-c]pyrimidin-5-yl)-3-methyl-8-azaspiro[4.5]decan-1-amine] | < 100 nM |  | < 100 nM | 4 nM | 64 nM | 59 nM
6 | CC1CCC2(CCN(c3ncc(Sc4cccc(Cl)c4Cl)c4nccn34)CC2)[C@@H]1N (stereo partly drawn) [(1R)-8-(8-((2,3-dichlorophenyl)thio)imidazo[1,2-c]pyrimidin-5-yl)-2-methyl-8-azaspiro[4.5]decan-1-amine] | < 100 nM | 100 to 1000 nM | 100 to 1000 nM |  |  | 
7 | CC1C[C@@H](N)C2(CCN(c3ncc(Sc4cccc(Cl)c4Cl)c4nccn34)CC2)C1 (stereo partly drawn) [(1R)-8-(8-((2,3-dichlorophenyl)thio)imidazo[1,2-c]pyrimidin-5-yl)-3-methyl-8-azaspiro[4.5]decan-1-amine] | < 100 nM | < 100 nM | 100 to 1000 nM | 11 nM | 53 nM | 140 nM
8 | CC1C[C@@H](N)C2(CCN(c3ncc(Sc4ccnc(Cl)c4Cl)c4nccn34)CC2)C1 (stereo partly drawn) [(1R)-8-(8-((2,3-dichloropyridin-4-yl)thio)imidazo[1,2-c]pyrimidin-5-yl)-3-methyl-8-azaspiro[4.5]decan-1-amine] | < 100 nM | < 100 nM | < 100 nM | 8 nM | 34 nM | 28 nM
9 | CC1C[C@@H](N)C2(CCN(c3ncc(Sc4ccnc(N)c4Cl)c4nccn34)CC2)C1 (stereo partly drawn) [(1R)-8-(8-((2-amino-3-chloropyridin-4-yl)thio)imidazo[1,2-c]pyrimidin-5-yl)-3-methyl-8-azaspiro[4.5]decan-1-amine] | < 100 nM | < 100 nM | < 100 nM | 32 nM | 59 nM | 54 nM
10 | CC1C[C@@H](N)C2(CCN(c3ncc(Sc4cc(N)nc(Cl)c4Cl)c4nncn34)CC2)C1 (stereo partly drawn) [(1R)-8-(8-((6-amino-2,3-dichloropyridin-4-yl)thio)-[1,2,4]triazolo[4,3-c]pyrimidin-5-yl)-3-methyl-8-azaspiro[4.5]decan-1-amine] | < 100 nM | < 100 nM | < 100 nM | 2 nM | 47 nM | 17 nM
11 | C[C@@H]1OCC2(CCN(c3ncc(Sc4cccc(Cl)c4Cl)c4nccn34)CC2)[C@@H]1N [(3S,4S)-8-(8-((2,3-dichlorophenyl)thio)imidazo[1,2-c]pyrimidin-5-yl)-3-methyl-2-oxa-8-azaspiro[4.5]decan-4-amine] | < 100 nM | 100 to 1000 nM | < 100 nM | 8 nM | 103 nM | 68 nM
12 | C[C@@H]1OCC2(CCN(c3ncc(Sc4ccnc(Cl)c4Cl)c4nncn34)CC2)[C@@H]1N [(3S,4S)-8-(8-((2,3-dichloropyridin-4-yl)thio)-[1,2,4]triazolo[4,3-c]pyrimidin-5-yl)-3-methyl-2-oxa-8-azaspiro[4.5]decan-4-amine] | < 100 nM |  |  | 5 nM | 161 nM | 133 nM
13 | C[C@@H]1OCC2(CCN(c3ncc(Sc4ccnc(Cl)c4Cl)c4nccn34)CC2)[C@@H]1N [(3S,4S)-8-(8-((2,3-dichloropyridin-4-yl)thio)imidazo[1,2-c]pyrimidin-5-yl)-3-methyl-2-oxa-8-azaspiro[4.5]decan-4-amine] | < 100 nM | < 100 nM | < 100 nM | 5 nM | 35 nM | 38 nM
14 | C[C@@H]1OCC2(CCN(c3ncc(Sc4ccnc(N)c4Cl)c4nccn34)CC2)[C@@H]1N [(3S,4S)-8-(8-((2-amino-3-chloropyridin-4-yl)thio)imidazo[1,2-c]pyrimidin-5-yl)-3-methyl-2-oxa-8-azaspiro[4.5]decan-4-amine] | < 100 nM | 100 to 1000 nM | < 100 nM | 20 nM | 150 nM | 76 nM
15 | C[C@@H]1OCC2(CCN(c3ncc(Sc4cc(N)ncc4Cl)c4nccn34)CC2)[C@@H]1N [(3S,4S)-8-(8-((2-amino-5-chloro-pyridin-4-yl)thio)imidazo[1,2-c]pyrimidin-5-yl)-3-methyl-2-oxa-8-azaspiro[4.5]decan-4-amine] |  | < 100 nM |  | 21 nM | 94 nM | 180 nM
16 | Cc1nccc(Sc2cnc(N3CCC4(CC3)CO[C@@H](C)[C@H]4N)n3cnnc23)c1Cl [(3S,4S)-8-(8-((3-chloro-2-methylpyridin-4-yl)thio)-[1,2,4]triazolo[4,3-c]pyrimidin-5-yl)-3-methyl-2-oxa-8-azaspiro[4.5]decan-4-amine] | < 100 nM | 100 to 1000 nM |  | 17 nM | 369 nM | 277 nM
17 | Cc1nccc(Sc2cnc(N3CCC4(CC3)CO[C@@H](C)[C@H]4N)n3ccnc23)c1Cl [(3S,4S)-8-(8-((3-chloro-2-methylpyridin-4-yl)thio)imidazo[1,2-c]pyrimidin-5-yl)-3-methyl-2-oxa-8-azaspiro[4.5]decan-4-amine] | < 100 nM | < 100 nM | < 100 nM | 15 nM | 19 nM | 50 nM
18 | C[C@@H]1OCC2(CCN(c3ncc(Sc4cc(N)nc(Cl)c4Cl)c4nccn34)CC2)[C@@H]1N [(3S,4S)-8-(8-((6-amino-2,3-dichloropyridin-4-yl)thio)imidazo[1,2-c]pyrimidin-5-yl)-3-methyl-2-oxa-8-azaspiro[4.5]decan-4-amine] | < 100 nM | < 100 nM | < 100 nM | 10 nM | 47 nM | 50 nM
19 | Cc1nc(N)cc(Sc2cnc(N3CCC4(CC3)CO[C@@H](C)[C@H]4N)n3ccnc23)c1Cl [(3S,4S)-8-(8-((6-amino-3-chloro-2-methyl-pyridin-4-yl)thio)imidazo[1,2-c]pyrimidin-5-yl)-3-methyl-2-oxa-8-azaspiro[4.5]decan-4-amine] | < 100 nM | < 100 nM | < 100 nM | 16 nM | 43 nM | 42 nM
20 | N[C@@H]1CCCCC12CCN(c1ncc(Sc3cccc(Cl)c3Cl)c3nncn13)CC2 [(R)-3-(8-((2,3-dichlorophenyl)thio)-[1,2,4]triazolo[4,3-c]pyrimidin-5-yl)-3-azaspiro[5.5]undecan-7-amine] | 100 to 1000 nM | 1000 to 10000 nM | 1000 to 10000 nM |  |  | 
21 | N[C@@H]1CCC12CCN(c1ncc(Sc3cccc(Cl)c3Cl)c3nccn13)CC2 [(R)-7-(8-((2,3-dichlorophenyl)thio)imidazo[1,2-c]pyrimidin-5-yl)-7-azaspiro[3.5]nonan-1-amine] | 100 to 1000 nM | 100 to 1000 nM | 100 to 1000 nM |  |  | 
22 | Cn1ccc2c(Sc3cnc(N4CCC5(CCC[C@H]5N)CC4)n4ccnc34)ccnc21 [(R)-8-(8-((1-methyl-1H-pyrrolo[2,3-b]pyridin-4-yl)thio)imidazo[1,2-c]pyrimidin-5-yl)-8-azaspiro[4.5]decan-1-amine] | < 100 nM | 100 to 1000 nM | 100 to 1000 nM |  |  | 
